Tests used:
LOLRI [1] = assay: Pre-emergence herbicidal action against LOLRI; format: in vivo, Lolium rigidum; settings: application rate 80 g/ha, scored visually after about 3 weeks vs untreated controls (100% = plants have died, 0% = like control plants)
Summary of the method: (§1)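 Compounds, as wettable powders or emulsion concentrates diluted in water plus 0.5% additive, go onto the soil over freshly sown seeds at 600 l/ha. Greenhouse incubation follows. Scoring is visual, in %, at ~3 weeks.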

PHBPU [2] = assay: Post-emergence herbicidal action against PHBPU; format: in vivo, Pharbitis purpurea; settings: application rate 80 g/ha, rated visually about 3 weeks after treatment
Summary of the method: (§2)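 Aqueous suspensions or emulsions of WP/EC formulations containing 0.5% additive are sprayed at 600 l/ha onto plants at the one-leaf stage. After about 3 weeks in the greenhouse, activity is rated by eye versus untreated controls.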

MATIN = assay: Pre-emergence herbicidal action against MATIN; format: in vivo, Matricaria inodora; settings: application rate 80 g/ha, scored visually after about 3 weeks vs untreated controls (100% = plants have died, 0% = like control plants)
Excerpt: (§3) 1. Pre-emergence herbicidal action against harmful plants and crop plant compatibility Seeds of monocotyledonous and dicotyledonous weed plants and crop plants are placed in plastic or wood-fibre pots and covered with soil. The compounds of the invention, formulated in the form of wettable powders (WP) or as emulsion concentrates (EC), are then applied onto the surface of the covering soil as aqueous suspension or emulsion with addition of 0.5% additive at a water application rate of 600 l/ha (converted). After the treatment, the pots are placed in a greenhouse and kept under good growth conditions for the trial plants. After about 3 weeks, the effect of the preparations is scored visually in comparison with untreated controls as percentages. For example, 100% activity=the plants have died, 0% activity=like control plants. [table]

HORMU [3] = assay: Post-emergence herbicidal action against HORMU; format: in vivo, Hordeum murinum; settings: application rate 80 g/ha
Summary of the method: as §2

LOLRI [4] = assay: Post-emergence herbicidal action against LOLRI; format: in vivo, Lolium rigidum; settings: application rate 80 g/ha, rated visually after about 3 weeks
Summary of the method: as §2

ECHCG [5] = assay: Pre-emergence herbicidal action against ECHCG; format: in vivo, Echinochloa crus-galli; settings: application rate 80 g/ha, scored visually after about 3 weeks vs untreated controls (100% = plants have died, 0% = like control plants)
Summary of the method: as §1

AVEFA [6] = assay: Post-emergence herbicidal action against AVEFA; format: in vivo, Avena fatua; settings: application rate 80 g/ha, rated visually after about 3 weeks
Summary of the method: as §2

STEME [7] = assay: Pre-emergence herbicidal action against STEME; format: in vivo, Stellaria media; settings: application rate 80 g/ha
Summary of the method: as §1

STEME [8] = assay: Post-emergence herbicidal action against STEME; format: in vivo, Stellaria media; settings: application rate 80 g/ha, rated visually about 3 weeks after treatment
Summary of the method: as §2

PHBPU [9] = assay: Pre-emergence herbicidal action against PHBPU; format: in vivo, Pharbitis purpurea; settings: application rate 80 g/ha
Summary of the method: as §1

SETVI = assay: Pre-emergence herbicidal action against SETVI; format: in vivo, Setaria viridis; settings: application rate 80 g/ha, scored visually after about 3 weeks vs untreated controls (100% = plants have died, 0% = like control plants)
Summary of the method: as §1

CYPES = assay: Pre-emergence herbicidal action against CYPES; format: in vivo; settings: application rate 80 g/ha, scored visually after about 3 weeks vs untreated controls (100% = plants have died, 0% = like control plants)
Excerpt: as §3, with “plants.” for “plants. [table]”

ALOMY [10] = assay: Pre-emergence herbicidal action against ALOMY; format: in vivo, Alopecurus myosuroides; settings: application rate 80 g/ha, scored visually after about 3 weeks vs untreated controls (100% = plants have died, 0% = like control plants)
Summary of the method: as §1

ECHCG [11] = assay: Post-emergence herbicidal action against ECHCG; format: in vivo, Echinochloa crus-galli; settings: application rate 80 g/ha, rated visually after about 3 weeks
Summary of the method: as §2

VIOTR = assay: Pre-emergence herbicidal action against VIOTR; format: in vivo, Viola tricolor; settings: application rate 80 g/ha
Summary of the method: as §1

AVEFA [12] = assay: Pre-emergence herbicidal action against AVEFA; format: in vivo, Avena fatua; settings: application rate 80 g/ha, scored visually after about 3 weeks vs untreated controls (100% = plants have died, 0% = like control plants)
Summary of the method: as §1

POLCO [13] = assay: Pre-emergence herbicidal action against POLCO; format: in vivo, Polygonum convolvulus; settings: application rate 80 g/ha
Summary of the method: as §1

HORMU [14] = assay: Pre-emergence herbicidal action against HORMU; format: in vivo, Hordeum murinum; settings: application rate 80 g/ha
Summary of the method: as §1

AMARE = assay: Pre-emergence herbicidal action against AMARE; format: in vivo, Amaranthus retroflexus; settings: application rate 80 g/ha
Summary of the method: as §1

ALOMY [15] = assay: Post-emergence herbicidal action against ALOMY; format: in vivo, Alopecurus myosuroides; settings: application rate 80 g/ha, rated visually after about 3 weeks
Summary of the method: as §2

POLCO [16] = assay: Post-emergence herbicidal action against POLCO; format: in vivo, Polygonum convolvulus; settings: application rate 80 g/ha, rated visually about 3 weeks after treatment
Summary of the method: as §2

SMILES: CCOC(=O)[C@@H]1C=C[C@H](NC(=O)C2(C)CC(c3cccc(F)c3)=NO2)C1 (stereo partly shown) [Example I-006]
- Herbicidal action against [%] LOLRI (LOLRI [1]): 100%
- Herbicidal action against [%] PHBPU (PHBPU [2]): 80%
- Herbicidal action against [%] MATIN (MATIN): 90%
- Herbicidal action against [%] HORMU (HORMU [3]): 80%
- Herbicidal action against [%] LOLRI (LOLRI [4]): 80%
- Herbicidal action against [%] ECHCG (ECHCG [5]): 100%
- Herbicidal action against [%] AVEFA (AVEFA [6]): 80%
- Herbicidal action against [%] STEME (STEME [7]): 100%
- Herbicidal action against [%] STEME (STEME [8]): 80%
- Herbicidal action against [%] PHBPU (PHBPU [9]): 90%
- Herbicidal action against [%] SETVI (SETVI): 100%
- Herbicidal action against [%] CYPES (CYPES): 100%
- Herbicidal action against [%] ALOMY (ALOMY [10]): 100%
- Herbicidal action against [%] ECHCG (ECHCG [11]): 80%
- Herbicidal action against [%] VIOTR (VIOTR): 90%
- Herbicidal action against [%] AVEFA (AVEFA [12]): 90%
- Herbicidal action against [%] POLCO (POLCO [13]): 80%
- Herbicidal action against [%] HORMU (HORMU [14]): 90%
- Herbicidal action against [%] AMARE (AMARE): 100%
- Herbicidal action against [%] ALOMY (ALOMY [15]): 80%

SMILES: COC(=O)[C@H]1C=C[C@@H](NC(=O)C2(C)CC(c3cccc(F)c3)=NO2)C1 (stereo partly drawn) [Example I-003, methyl (1R,4S)-4-[[[3-(3-fluorophenyl)-5-methyl-4H-1,2-oxazol-5-yl]carbonyl]amino]cyclopent-2-ene-1-carboxylate]
- Herbicidal action against [%] STEME (STEME [7]): 80%
- Herbicidal action against [%] CYPES (CYPES): 100%
- Herbicidal action against [%] VIOTR (VIOTR): 100%
- Herbicidal action against [%] POLCO (POLCO [13]): 80%
- Herbicidal action against [%] POLCO (POLCO [16]): 80%

— US12319664B2, “Herbicidally active 3-phenylisoxazoline-5-carboxamides of cyclopentenylcarboxylic acid derivatives” (Bayer Aktiengesellschaft, priority 2018, dated 2025)
